Laboratory results taken from US20110207655A1, “CYCLIC DEPSIPEPTIDE COMPOUND AND USE THEREOF” (Astellas Pharma Inc., priority 2008, published 2011).
Starred links: 1 amine or outer side, 2 acyl side, 3 side chain; linkers in the order of their positions; H or OH if unused. Positions of bridges follow the written chain, without caps; N, C: chain ends. Non-standard residues stand in square brackets, D forms with d. Residues, ends and D or L forms follow the SMILES beside them. Leu(3R-O(AcLeu(3R-OH))) = CC(=O)N[C@H](C(=O)O[C@H](C(C)C)[C@H](N)C(=O)O)[C@H](O)C(C)C; X1 = CO[C@H](C)C(C(=O)[*:2])N(C)[*:1]; dPhLac = O=C(O)[C@H](O)Cc1ccccc1; NMeA = CN[C@@H](C)C(=O)O; NMeDha = C=C(NC)C(=O)O

Legend:
[1] = system: Gq/11; assay: Inhibitory action on Gq/11: LTD4-induced cellular Ca2+ change in CHO cells stably expressing CysLTR2 (FLIPR); assay type: cell-based; conditions: read-out: Gq/11 inhibitory activities (IC50 values), 10 nM LTD4, maximum Fluo-4 fluorescence intensity
Protocol: The test was carried out according to the method of Non-Patent Citation 3, using a leukotriene receptor CysLTR2 (cysteinyl leukotriene receptor 2), which is known to activate Gq/11. CHO cells stably expressing CysLTR2 were seeded on a 96-well black/clear bottom plate (manufactured by Becton, Dickinson and Company) at 20,000 cells per well, and after 24 hours of seeding, the medium was discarded. Then, Hanks BSS (GIBCO Inc.) including 2 μM Fluo-4, AM (manufactured by Molecular Probe Co.), 0.004% pluronic acid, 1% FBS, 20 mM HEPES, and 2.5 mM probenecid was added thereto at 100 μL per well, followed by incubation at 37° C. for 1 hour. After incubation, the resultant was washed four times with Hanks BSS including 20 mM HEPES, and Hanks BSS including 20 mm HEPES per well was added thereto 100 μL per well. In addition, 50 μL of a test compound that had been diluted with Hanks BSS including 20 mM HEPES to a final concentration from 1×10^−10 M to 1×10^−5 M was added thereto, followed by being left to stand at room temperature for 30 minutes. The change of cellular Ca^2+ concentration after addition of leukotriene D4 (LTD4, manufactured by Cayman Co.), which is a CysLTR2 ligand, was measured over time using an FLIPR (Molecular Device Corp.). 50 μL it of leukotriene D4 that had been diluted with Hanks BSS including 20 mM HEPES to a final concentration of 10 nM at 10 seconds after the initiation of measurement was added thereto, fluorescence intensities were measured every second for 50 seconds and every sixth second for 2 minutes, and a maximum fluorescence intensity during a measurement time of 3 minutes was observed. By plotting the concentrations and the fluorescence intensities of the test compounds, the IC50 values were calculated, which were taken as Gq/11 inhibitory activities.

[2] = system: methacholine-induced airway contraction; assay: Inhibitory action of intratracheal administration on the methacholine-induced airway contraction; assay type: in vivo, SD male rats; conditions: rats; for airway contraction inhibitory rate: 1 hour before methacholine 30 μg/kg i.v., vs saline group
Protocol: SD male rats (Charles River Laboratories Japan, Inc.) were used in experiments. Urethane (1.2 g/kg) was administered intraperitoneally to the rats for anesthesia. Using a metal canula for intratracheal administration, test compounds (0.3, 1, and 3 μg/kg) or physiological saline was administered intratracheally (3 or 4 animals) at a volume of 0.5 mL/kg. Cannulation for intravenous administration was carried out in the external jugular vein of the rats. A tracheostomy cannula was inserted through an incision in the trachea and mechanical ventilation (10 mL/kg, 90 times/min) was carried out using a Breathing Analysis Computer System (flexiVent, SCIREQ Inc.). The mechanical ventilator circuit was connected with a pressure transducer (TP-400T, Nihon Kohden Corporation) and the change in airway pressure was measured. The airway pressure signal was amplified with a strain pressure amplifier (AP-601G, Nihon Kohden Corporation) and recorded on chart paper by a thermal pen recorder (WT-685G, Nihon Kohden Corporation, or LINEARCORDER F WR3701, Graphtec). The body temperature of the rats was maintained at 37° C. using a body temperature-maintaining device (BWT-100, Bio Research
Center). At 1 hour after intratracheal administration of the test compound, a solution of acetyl-β-methacholine chloride in physiological saline (30 μg/kg, acetylcholine β-methacholine chloride=manufactured by SIGMA Co.) was administered intravenously to induce the airway contraction response. The airway contraction inhibitory rate of the test compound was calculated by comparing the airway pressure increase rate (%) with one obtained by intratracheal administration of physiological saline, and ED50 values were determined.

[3] = system: Gq and G11; conditions: Non-Patent Citation 3; cited from earlier work

With `C=C1C(=O)N[C@@H](C)C(=O)N(C)[C@@H](C)C(=O)N[C@@H]([C@H](OC(=O)[C@@H](NC(C)=O)[C@H](O)C(C)C)C(C)C)C(=O)N(C)C([C@@H](C)OC)C(=O)O[C@H](C)[C@H](NC(C)=O)C(=O)O[C@H](Cc2ccccc2)C(=O)N1C` (stereo partly drawn) [Ref 1] (Ac-T[dPhLac][NMeDha]A[NMeA][Leu(3R-O(AcLeu(3R-OH)))][X1]; ester 1-C) the IC50 [1] was 66 nM, the ED50 ([2]; Rattus norvegicus, intratracheal, calculated from three points, read-out: ED50 value of inhibition of methacholine-induced airway contraction) was 0.73 µg/kg and the “airway contraction inhibitory rate” value ([2]; intratracheal 0.3 μg/kg) was 32%. For the same compound, the “airway contraction inhibitory rate” value ([2]; intratracheal 1 μg/kg) was 45%, the “airway contraction inhibitory rate” value ([2]; intratracheal 3 μg/kg) was 98% and the “inhibition of Gq and G11” value [3] was “strongly inhibits”.
